Assay results: BigSolDB 2.1

NCC(CC(=O)O)c1ccc(Cl)cc1 (stereo not given)
solubility (mole fraction)
Settings	in ethanol	in isopropanol	in methanol	in n-propanol	in propylene glycol
293.2 K	3.25e-05	5.77e-05	0.000123	5.6e-05	0.000216
298.2 K	4.17e-05	6.36e-05	0.000131	6.26e-05	0.000271
303.2 K	4.87e-05	7.64e-05	0.00014	6.34e-05	0.000345
308.2 K	5.39e-05	8.09e-05	0.000147	7.82e-05	0.000424
313.2 K	6.09e-05	8.85e-05	0.000173	8.22e-05	0.000485
